From patent US4173647A, “4-Spectinomycylamine and salts thereof” (Boehringer Ingelheim GmbH, priority 1977, dated 1979) come the findings set out here.

Assay [1] relates to Klebsiella pneumoniae ATCC 10 031. The experiment in a line: series-dilution assay in the microtiter system, bacteriostasis. The class given is cell-based. As to conditions: ATCC10, 18 to 20 hours at 37° C., pH 6.7, lowest still bacteriostatically effective concentration, read-out: Minimum inhibiting concentration. How it is done:
(§1) 4-R-Spectinomycylamine of the formula I was tested in comparison with the known antibiotic spectinomycin with regard to its effectiveness against Staphylococcus aureus SG 511, Streptococcus aronson, Escherichia coli ATCC 9637, Pseudomonas aeruginosa, Serratia marcescens ATCC 13 880, Klebsiella pneumoniae ATCC 10 031, Proteus mirabilis and Proteus vulgaris, and with regard to acute toxicity.
(§2) For these tests the method of the series-dilution essay in the microtiter system was used. The substances were tested in a fluid medium with regard to bacteriostasis. The effectiveness of the bacteriostasis was tested at the following concentrations: 80, 40, 20, 10, 5, 2.5, 1.25, 0.6 and 0.3 μgm/ml. A bouillon consisting of 5 gm of peptone, 3 gm of meat extract, filled up to a volume of 1000 ml with distilled water served as nutriant; pH-value 6.7. The age of the primary cultures was 24 hours. The adjustment of the microorganism suspension was carried out with a photometer (according to Eppendorf) (diameter of the test tube 14 mm, filter 546 nm) by comparison with the turbidity of a barium sulfate comparison suspension produced by a suspension of barium sulfate which was prepared by addition of 3.0 ml of 1% barium chloride solution on 97 ml of 1% sulfuric acid. After the adjustment streptococcus aronson was diluted 1:150 and the remaining test microorganisms were further diluted with sodium chloride solution in the proportion of 1:1500.
(§3) 16 mgm of the test substance was weighed in 10 ml measuring flasks and filled up with the solvent until the mark was reached. The further dilution series was prepared with distilled water or with the respective solvent.
(§4) 0.2 ml of nutrient medium, 0.01 ml of the corresponding test substance dilution and 1 drop of the microorganism suspension were placed into the cavities of the microtiter plates and incubated for 18 to 20 hours at 37° C. A solvent control batch was always treated in like manner at the same time.
(§5) The reading was effected macroscopically, whereby the respective threshold concentration (=lowest still bacteriostatically effective concentration) was determined.

A further assay relates to Proteus vulgaris. Described as above. The class given is cell-based. As to conditions: 18 to 20 hours at 37° C., pH 6.7, lowest still bacteriostatically effective concentration, read-out: Minimum inhibiting concentration. How it is done: as §1, §2, §3, §4, §5
The subject of a further assay is Proteus mirabilis. The assay is described as above. The class given is cell-based. As to conditions: 18 to 20 hours at 37° C., pH 6.7, lowest still bacteriostatically effective concentration, read-out: Minimum inhibiting concentration. The protocol: as §1, §2, §3, §4, §5
Assay [2] relates to Escherichia coli ATCC 9637. The assay is described as above. Type of assay: cell-based. As to conditions: ATCC9637, pH 6.7, read-out: Minimum inhibiting concentration. How it is done: as §1, §2, §3, §4, §5
Another assay concerns Pseudomonas aeruginosa. The description is as above. Type of assay: cell-based. As to conditions: pH 6.7, read-out: Minimum inhibiting concentration. How it is done:
as §1, §2, §3, §4, §5

For a further assay, the system named is Streptococcus aronson. Described as above. The class given is cell-based. As to conditions: 18 to 20 hours at 37° C., pH 6.7, lowest still bacteriostatically effective concentration, read-out: Minimum inhibiting concentration. The protocol:
as §1, §2, §3, §4, §5

The subject of assay [3] is Serratia marcescens ATCC 13 880. The assay is described as above. The class given is cell-based. As to conditions: ATCC13, pH 6.7, read-out: Minimum inhibiting concentration. The protocol:
as §1, §2, §3, §4, §5

Assay [4] has as its system Staphylococcus aureus SG 511. The description is as above. The class given is cell-based. As to conditions: SG511, 18 to 20 hours at 37° C., pH 6.7, lowest still bacteriostatically effective concentration, read-out: Minimum inhibiting concentration. How it is done: as §1, §2, §3, §4, §5
The nature of assay [5]: antimicrobial activity (general statement, in vitro and in warm-blooded animals such as mice).

Structures are written as SMILES. In brackets after ≈: the same amount, converted by molar mass.

Consider `CNC1C(O)C(NC)C2OC3(O)C(N)CC(C)OC3OC2C1O` (centres unmarked) [4-R-Spectinomycylamine], for which the MIC in assay [1] is 10 µg/mL (≈ 30 µM); in the assay with Proteus vulgaris it was 5 µg/mL (≈ 15 µM); with Proteus mirabilis, 10 µg/mL (≈ 30 µM); in [2], 20 µg/mL (≈ 60 µM); in the assay with Pseudomonas aeruginosa, 40 µg/mL (≈ 120 µM); in the assay on Streptococcus aronson, 5 µg/mL (≈ 15 µM). In addition, the MIC in assay [3] was found to be 10 µg/mL (≈ 30 µM); in assay [4], 5 µg/mL (≈ 15 µM). Further, in [5], the “antimicrobial properties (in words)” value is “especially pronounced”.

`CN[C@@H]1[C@H](O)[C@H](NC)[C@H]2O[C@@]3(O)C(=O)C[C@@H](C)O[C@H]3O[C@@H]2[C@H]1O` [Spectinomycin, spectinomycin, reference compound]: the MIC in assay [1] was 20 µg/mL (≈ 60.2 µM); with Proteus vulgaris, 10 µg/mL (≈ 30.1 µM); in the assay with Proteus mirabilis it was 10 µg/mL (≈ 30.1 µM); in [2], 40 µg/mL (≈ 120 µM); in the assay on Pseudomonas aeruginosa, 160 µg/mL (≈ 481 µM); in the assay with Streptococcus aronson, 10 µg/mL (≈ 30.1 µM). Also, the MIC in assay [3] and in assay [4] was 20 µg/mL (≈ 60.2 µM) each time.
